According to publication PMC12730722, “Identification and Functional Characterization of the Leg-Enriched Chemosensory Protein PxylCSP9 in Plutella xylostella (Lepidoptera: Plutellidae)” (Biology, 2025):

Experiments:
[1] = system: P. xylostella; design: key to behavioral effect of plant volatile on P. xylostella (attractive / repellent): Refers to plant volatiles that are attractive to P. xylostella; b: Refers to plant volatiles that are repellent to P. xylostella; conditions: cited from earlier work; for behavioral effect of plant volatile on P. xylostella (attractive / repellent): footnote marks of Table 2, ref 37,45,46,47,48 (a), ref 49,50,51 (b)
[2] = target: T1, PxylCSP9 (Plutella xylostella, UniProt A0A8S4FJE6); assay: Binding of fluorescent probe Bis-ANS to PxylCSP9 (titration, Scatchard plot); conditions: 1 μM protein, 50 mM Tris-HCl pH 7.4, probe 1 to 10 μM, read-out: dissociation constant of PxylCSP9/Bis-ANS complex
Protocol: To identify the ligands that bind to PxylCSP9, we selected several typical chemical components from the host plants of P. xylostella for fluorescence competitive binding experiments. The purity of all ligands and the fluorescent probe 4,4′-dianilino-1,1′-binaphthyl-5,5′-sulfonate (Bis-ANS) was ≥95%, which was purchased from Aladdin (Shanghai, China) or Sigma-Aldrich (St. Louis, MO, USA.). All the compounds were dissolved individually in chromatography-grade methanol (Aladdin, Shanghai, China) to prepare 1 mM stock solutions. Fluorescence competitive binding assays were performed using an RF-5301 Fluorescence Spectrophotometer (Shimadzu, Kyoto, Japan) with a quartz cuvette of a 1 cm path length. The excitation and emission slit widths were both set to 5 nm. The excitation wavelength of the fluorescent probe was 365 nm, and the emission spectra were recorded from 400 to 580 nm.
The affinity of Bis-ANS for PxylCSP9 was measured by titrating a 1 μM solution of the protein in 50 mM Tris-HCl (pH 7.4) with aliquots of 1 mM Bis-ANS stock solution to final probe concentrations ranging from 1 to 10 μM. In competitive binding assays, the ligand concentrations ranging from 0 to 10 μM were added to a solution containing PxylCSP9 (1 μM) and Bis-ANS (1 μM). […]

[3] = system: P. xylostella; design: method as in doi:10.1111/j.1744-7917.2004.tb00178.x, doi:10.1111/jen.13144, PMID 29474734; conditions: cited from earlier work
[4] = target: T1, PxylCSP9; assay: Fluorescence competitive binding assay (Bis-ANS probe displacement)
Protocol: The purity of all ligands and the fluorescent probe 4,4′-dianilino-1,1′-binaphthyl-5,5′-sulfonate (Bis-ANS) was ≥95%, which was purchased from Aladdin (Shanghai, China) or Sigma-Aldrich (St. Louis, MO, USA.). All the compounds were dissolved individually in chromatography-grade methanol (Aladdin, Shanghai, China) to prepare 1 mM stock solutions. […] The excitation and emission slit widths were both set to 5 nm. The excitation wavelength of the fluorescent probe was 365 nm, and the emission spectra were recorded from 400 to 580 nm.
In competitive binding assays, the ligand concentrations ranging from 0 to 10 μM were added to a solution containing PxylCSP9 (1 μM) and Bis-ANS (1 μM). All data were analyzed based on the assumptions that the protein was 100% active and that binding followed a 1:1 stoichiometry (protein:ligand) at saturation. The binding curves for Bis-ANS were linearized using a Scatchard plot. The dissociation constants of the competitors were calculated from their corresponding IC50 values using the following equation: Ki = [IC50]/(1 + [Bis-ANS]/KBis-ANS), where IC50 is the ligand concentration that reduces the initial fluorescence intensity of Bis-ANS by half, [Bis-ANS] is the free concentration of Bis-ANS, and KBis-ANS is the dissociation constant of the PxylCSP9/Bis-ANS complex.

[5] = system: certain lepidopteran insects; design: method as in PMID 40195004, doi:10.1023/A:1020990018111, doi:10.1023/A:1020750029362; conditions: cited from earlier work

T1 sequence (A0A8S4FJE6 entry or part of it): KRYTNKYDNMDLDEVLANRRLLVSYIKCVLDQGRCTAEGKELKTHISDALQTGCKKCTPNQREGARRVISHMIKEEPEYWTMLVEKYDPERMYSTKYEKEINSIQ

CCCCCCCCC=O [1-Nonanal]
behavioral effect of plant volatile on P. xylostella (attractive / repellent) [1]: 1-Nonanal ^a

CCCC(C)CC(C)C (centres unmarked) [2,4-Dimethylheptane]
behavioral effect of plant volatile on P. xylostella (attractive / repellent) [1]: 2,4-Dimethylheptane ^b

CCCCCCCC(C)C [2-Methylnonane]
behavioral effect of plant volatile on P. xylostella (attractive / repellent) [1]: 2-Methylnonane ^b

CCC/C=C/C=O [(E)-2-Hexenal]
behavioral effect of plant volatile on P. xylostella (attractive / repellent) [1]: (E)-2-Hexenal ^a

C=C(C)[C@@H]1CC=C(C)C(=O)C1 [(R)-(-)-Carvone]
behavioral effect of plant volatile on P. xylostella (attractive / repellent) [1]: (R)-(-)-Carvone ^b

C=CCN=C=S [Allyl isothiocyanate]
feeding and oviposition behaviors in P. xylostella [1]: induce feeding and oviposition behaviors

O=S(=O)(O)c1cccc2c(-c3ccc(Nc4ccccc4)c4c(S(=O)(=O)O)cccc34)ccc(Nc3ccccc3)c12 [Bis-ANS, 4,4′-dianilino-1,1′-binaphthyl-5,5′-sulfonate]
Kd [2]: 4.86 ± 0.04 µM

C=C(C)C1CC=C(C)CC1 (centres unmarked) [Limonene]
behavioral avoidance response of P. xylostella [1]: significantly induce its behavioral avoidance response
oviposition deterrent effects [1]: oviposition deterrent effects
behavioral effect of plant volatile on P. xylostella (attractive / repellent) [1]: Limonene ^b
EAG response of P. xylostella [3]: effectively stimulate the EAG response

C=CC(C)(O)CCC=C(C)C (centres unmarked) [Linalool]
behavioral effect of plant volatile on P. xylostella (attractive / repellent) [1]: Linalool ^b

CC(=O)CCC=C(C)C [Methyl heptenone]
IC50 ([4]; PxylCSP9 1 μM, Bis-ANS 1 μM, 50 mM Tris-HCl pH 7.4, ligand concentration halving Bis-ANS fluorescence): 20.1 ± 1.98 µM
Ki ([4]; calculated from IC50: Ki = [IC50]/(1 + [Bis-ANS]/KBis-ANS)): 17 µM

C=CC(=C)CCC=C(C)C [Myrcene]
behavioral avoidance response of P. xylostella [1]: significantly induce its behavioral avoidance response
behavioral effect of plant volatile on P. xylostella (attractive / repellent) [1]: Myrcene ^b
EAG response of P. xylostella [3]: effectively stimulate the EAG response

OCCc1ccccc1 [Phenethyl alcohol]
behavioral effect of plant volatile on P. xylostella (attractive / repellent) [1]: Phenethyl alcohol ^a
EAG responses and attractive behaviors [5]: elicit electroantennogram (EAG) responses and attractive behaviors

CC1=CC=C(C(C)C)CC1 [α-Terpinene]
behavioral avoidance response of P. xylostella [1]: significantly induce its behavioral avoidance response
oviposition deterrent effects [1]: oviposition deterrent effects
behavioral effect of plant volatile on P. xylostella (attractive / repellent) [1]: α-Terpinene ^b
EAG response of P. xylostella [3]: effectively stimulate the EAG response
